Reference: PubChem BioAssay AID256 (DTP/NCI, 2004)
Several values for one entry are separate records, joined by “and”; a condition that tells them apart may be missing. Equal entries are not always repeated. Inconclusive results and toxic doses are left out. Rule for the calls: active = survival T/C of 150% or more; inactive = T/C below 125% in these data.

System: CD2F1 mice, L1210 leukemia ip, survival T/C
Test: NCI In Vivo Anticancer Drug Screen. Data for tumor model L1210 Leukemia (intraperitoneal) in CD2F1 (CDF1) mice
Settings: higher = longer survival
In short: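 Implant tumor; dose compound or vehicle; measure endpoint in both groups; report treated divided by control.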

[1] = endpoint: mean survival time, dose: 12.5 mg/kg/injection, schedule: Q04DX003 (ip), vehicle: saline with Tween-80
[2] = endpoint: mean survival time, dose: 100.0 mg/kg/injection, schedule: Q04DX003 (ip), vehicle: saline with Tween-80
[3] = endpoint: mean survival time, dose: 200.0 mg/kg/injection, schedule: Q04DX003 (ip), vehicle: saline with Tween-80
[4] = endpoint: mean survival time, dose: 400.0 mg/kg/injection, schedule: Q04DX003 (ip), vehicle: saline with Tween-80
[5] = endpoint: mean survival time, dose: 100.0 mg/kg/injection, schedule: Q04DX003 (ip), vehicle: saline
[6] = endpoint: mean survival time, dose: 200.0 mg/kg/injection, schedule: Q04DX003 (ip), vehicle: saline
[7] = endpoint: mean survival time, dose: 400.0 mg/kg/injection, schedule: Q04DX003 (ip), vehicle: saline
[8] = endpoint: mean survival time, dose: 100.0 mg/kg/injection, schedule: Q01DX009 (ip), vehicle: saline with Tween-80
[9] = endpoint: mean survival time, dose: 200.0 mg/kg/injection, schedule: Q01DX009 (ip), vehicle: saline with Tween-80
[10] = endpoint: mean survival time, dose: 400.0 mg/kg/injection, schedule: Q01DX009 (ip), vehicle: saline with Tween-80
[11] = endpoint: mean survival time, dose: 100.0 mg/kg/injection, schedule: Q01DX001 (ip), vehicle: saline with Tween-80
[12] = endpoint: mean survival time, dose: 200.0 mg/kg/injection, schedule: Q01DX001 (ip), vehicle: saline with Tween-80
[13] = endpoint: mean survival time, dose: 400.0 mg/kg/injection, schedule: Q01DX001 (ip), vehicle: saline with Tween-80
[14] = endpoint: mean survival time, dose: 100.0 mg/kg/injection, schedule: Q01DX001 (ip), vehicle: saline
[15] = endpoint: mean survival time, dose: 200.0 mg/kg/injection, schedule: Q01DX001 (ip), vehicle: saline
[16] = endpoint: mean survival time, dose: 400.0 mg/kg/injection, schedule: Q01DX001 (ip), vehicle: saline
[17] = endpoint: mean survival time, dose: 25.0 mg/kg/injection, schedule: Q01DX001 (ip), vehicle: saline with Tween-80
[18] = endpoint: mean survival time, dose: 50.0 mg/kg/injection, schedule: Q01DX001 (ip), vehicle: saline with Tween-80

Measured: T/C

Cc1cc(O)c2c(c1O)C(=O)C13C(=C2O)C(=O)C2C(O)C1C1C(O)C3C(=O)C3=C(O)c4c(O)cc(C)c(O)c4C(=O)C321 (stereo not given)
inactive: endpoint: mean survival time, dose: 6.25 mg/kg/injection, schedule: Q04DX003 (ip), vehicle: saline with Tween-80 102 % of control | [1] 107 % of control | endpoint: mean survival time, dose: 25.0 mg/kg/injection, schedule: Q04DX003 (ip), vehicle: saline with Tween-80 93 % of control | endpoint: median survival time, dose: 0.78 mg/kg/injection, schedule: Q01DX009 (ip), vehicle: saline with Tween-80 111 % of control | endpoint: median survival time, dose: 1.56 mg/kg/injection, schedule: Q01DX009 (ip), vehicle: saline with Tween-80 109 % of control | endpoint: median survival time, dose: 3.12 mg/kg/injection, schedule: Q01DX009 (ip), vehicle: saline with Tween-80 97 % of control and 102 % of control

CCC[CH2][Sn]([CH2]CCC)([n]1cncn1)[n]1cncn1
inactive: [1] 105 % of control

COc1cc(-c2[nH]c(=S)[nH]c(=O)c2CCO)cc(OC)c1OC
inactive: [2] 98 % of control | [3] 98 % of control | [4] 91 % of control

CCOC(=O)C1=C(C)NC(C)=C(C(=O)OCC)C1c1ccccn1
inactive: endpoint: mean survival time, dose: 50.0 mg/kg/injection, schedule: Q01DX009 (ip), vehicle: Klucel (hydroxypropylcellulose) (HPC) 94 % of control | endpoint: mean survival time, dose: 100.0 mg/kg/injection, schedule: Q01DX009 (ip), vehicle: Klucel (hydroxypropylcellulose) (HPC) 91 % of control | endpoint: mean survival time, dose: 200.0 mg/kg/injection, schedule: Q01DX009 (ip), vehicle: Klucel (hydroxypropylcellulose) (HPC) 89 % of control

O.O=S(=O)([O-])O.O=[N+]([O-])O.[Co+3].[NH2-].[NH2-].[NH2-].[NH2-]
inactive: endpoint: mean survival time, dose: 100.0 mg/kg/injection, schedule: Q04DX002 (ip), vehicle: saline with Tween-80 94 % of control | endpoint: mean survival time, dose: 200.0 mg/kg/injection, schedule: Q04DX002 (ip), vehicle: saline with Tween-80 97 % of control

c1coc(CNc2ncnc3c2ncn3Cc2ccco2)c1
inactive: endpoint: mean survival time, dose: 6.25 mg/kg/injection, schedule: Q01DX005 (ip), vehicle: other 96 % of control | endpoint: mean survival time, dose: 12.5 mg/kg/injection, schedule: Q01DX005 (ip), vehicle: other 90 % of control | endpoint: mean survival time, dose: 25.0 mg/kg/injection, schedule: Q01DX005 (ip), vehicle: other 90 % of control

Cc1nc(NN)c([N+](=O)[O-])c(NN)n1
inactive: endpoint: mean survival time, dose: 100.0 mg/kg/injection, schedule: Q04DX003 (ip), vehicle: Klucel (hydroxypropylcellulose) (HPC) 89 % of control | endpoint: mean survival time, dose: 200.0 mg/kg/injection, schedule: Q04DX003 (ip), vehicle: Klucel (hydroxypropylcellulose) (HPC) 95 % of control | endpoint: mean survival time, dose: 400.0 mg/kg/injection, schedule: Q04DX003 (ip), vehicle: Klucel (hydroxypropylcellulose) (HPC) 102 % of control

O=S1(=O)CC(O)C(Br)C1 (stereo not given)
inactive: [2] 103 % of control | [3] 101 % of control | [4] 92 % of control

CCCCCNc1ncnc2c(C)[nH]nc12
inactive: endpoint: median survival time, dose: 25.0 mg/kg/injection, schedule: Q01DX009 (ip), vehicle: Klucel (hydroxypropylcellulose) (HPC) 101 % of control | endpoint: median survival time, dose: 50.0 mg/kg/injection, schedule: Q01DX009 (ip), vehicle: Klucel (hydroxypropylcellulose) (HPC) 108 % of control | endpoint: median survival time, dose: 100.0 mg/kg/injection, schedule: Q01DX009 (ip), vehicle: Klucel (hydroxypropylcellulose) (HPC) 100 % of control | endpoint: median survival time, dose: 200.0 mg/kg/injection, schedule: Q01DX009 (ip), vehicle: Klucel (hydroxypropylcellulose) (HPC) 96 % of control

CCN(CC)CCNCc1c[nH]c(=S)[nH]c1=O
inactive: [5] 103 % of control | [6] 97 % of control | [7] 101 % of control

O=C(O)CC(NC(=O)CP(=O)(O)O)C(=O)O (stereo not given)
inactive: endpoint: mean survival time, dose: 86.4 mg/kg/injection, schedule: Q01DX009 (ip), vehicle: saline 98 % of control | endpoint: mean survival time, dose: 200.0 mg/kg/injection, schedule: Q01DX009 (ip), vehicle: saline 112 % of control | endpoint: mean survival time, dose: 225.0 mg/kg/injection, schedule: Q01DX009 (ip), vehicle: saline 116 % of control | endpoint: mean survival time, dose: 240.0 mg/kg/injection, schedule: Q01DX009 (ip), vehicle: saline 105 % of control | endpoint: mean survival time, dose: 250.0 mg/kg/injection, schedule: Q01DX009 (ip), vehicle: saline 115 % of control

Nc1cc(Cl)c(Cl)cc1Cl
inactive: endpoint: mean survival time, dose: 50.0 mg/kg/injection, schedule: Q01DX009 (ip), vehicle: saline with Tween-80 93 % of control | [8] 106 % of control | [2] 100 % of control | [9] 95 % of control | [3] 94 % of control | [10] 108 % of control

CC1(C)N=C(N)N=C(N)N1c1ccc(/C=C/C(=O)Nc2cccc(S(=O)(=O)F)c2)cc1
inactive: [11] 89 % of control | [12] 95 % of control | [13] 92 % of control

O=C1C(c2ccccc2)=C(c2ccccc2)CC(c2ccccc2)C1c1ccccc1 (stereo not given)
inactive: [2] 97 % of control | [3] 97 % of control | [4] 95 % of control

COC(=O)C1CC2C(=O)CCCCCCC2C1O (stereo not given)
inactive: [11] 93 % of control | [12] 101 % of control | [13] 98 % of control

O=C(O)Cc1c[nH]c2ccc(O)cc12
inactive: [8] 98 % of control | [2] 105 % of control | [9] 96 % of control | [3] 100 % of control | [10] 95 % of control | [4] 100 % of control

CN(C)C(=O)NCCN(CCNC(=O)N(C)C)C(=O)N(C)C
inactive: [2] 98 % of control | [3] 96 % of control | [4] 94 % of control

O=C(C[n+]1ccccc1/C=N/O)c1ccccc1
inactive: endpoint: mean survival time, dose: 50.0 mg/kg/injection, schedule: Q04DX003 (ip), vehicle: saline with Tween-80 91 % of control

C=CCCCCC/C=C/CCCCCC
inactive: [14] 96 % of control | [5] 108 % of control | [15] 98 % of control | [6] 103 % of control | [16] 104 % of control | [7] 106 % of control

CC(C)(C)OOC(=O)Nc1ccc(Cl)cc1
inactive: [17] 88 % of control | [18] 92 % of control | [11] 88 % of control

Nc1ccc(OC(=O)c2ccccc2)cc1
inactive: endpoint: mean survival time, dose: 12.5 mg/kg/injection, schedule: Q01DX001 (ip), vehicle: saline with Tween-80 92 % of control | endpoint: mean survival time, dose: 12.5 mg/kg/injection, schedule: Q01DX009 (ip), vehicle: saline with Tween-80 91 % of control | [17] 90 % of control | endpoint: mean survival time, dose: 25.0 mg/kg/injection, schedule: Q01DX009 (ip), vehicle: saline with Tween-80 86 % of control | [18] 90 % of control

Cc1ccc2cc3c(cc2c1C)sc1ccccc13
inactive: endpoint: mean survival time, dose: 8.8 mg/kg/injection, schedule: Q04DX003 (ip), vehicle: other 108 % of control | endpoint: mean survival time, dose: 17.5 mg/kg/injection, schedule: Q04DX003 (ip), vehicle: other 115 % of control | endpoint: mean survival time, dose: 35.0 mg/kg/injection, schedule: Q04DX003 (ip), vehicle: other 108 % of control | endpoint: mean survival time, dose: 70.0 mg/kg/injection, schedule: Q04DX003 (ip), vehicle: other 97 % of control | endpoint: mean survival time, dose: 140.0 mg/kg/injection, schedule: Q04DX003 (ip), vehicle: other 93 % of control

CCNC(C)(C)C(SS)c1ccc(C(F)(F)F)cc1 (stereo not given)
inactive: [2] 88 % of control | [3] 90 % of control | [4] 93 % of control

O=C(c1ccccc1)c1cn(C2CCCCC2)c(-c2ccccc2)c1NC1CCCCC1
inactive: [2] 87 % of control | [3] 87 % of control | [4] 94 % of control

COC(C[P+](Cc1ccccc1)(c1ccccc1)c1ccccc1)OC
inactive: endpoint: mean survival time, dose: 18.8 mg/kg/injection, schedule: Q04DX003 (ip), vehicle: saline 104 % of control | endpoint: mean survival time, dose: 37.5 mg/kg/injection, schedule: Q04DX003 (ip), vehicle: saline 103 % of control | endpoint: mean survival time, dose: 75.0 mg/kg/injection, schedule: Q01DX001 (ip), vehicle: saline 101 % of control | endpoint: mean survival time, dose: 75.0 mg/kg/injection, schedule: Q04DX003 (ip), vehicle: saline 98 % of control

COc1cc2cc(c1Cl)N(C)C(=O)/C=C/C1(C)OC1C(C)C1CC(O)(NC(=O)O1)C(OC)C=C/C=C(\C)C2 (stereo not given)
inactive: endpoint: mean survival time, dose: 1.3 micrograms/kg/injection, schedule: Q01DX009 (ip), vehicle: saline + alcohol 94 % of control | endpoint: mean survival time, dose: 2.5 micrograms/kg/injection, schedule: Q01DX009 (ip), vehicle: saline + alcohol 94 % of control | endpoint: mean survival time, dose: 5.0 micrograms/kg/injection, schedule: Q01DX009 (ip), vehicle: saline + alcohol 97 % of control | endpoint: mean survival time, dose: 10.0 micrograms/kg/injection, schedule: Q01DX009 (ip), vehicle: saline + alcohol 97 % of control

CCCCC(CC)CCC(OC(=O)CSC#N)C(C)CC (stereo not given)
inactive: [14] 97 % of control | [15] 91 % of control | [16] 97 % of control

Cc1cccc(CC(F)(F)F)c1
inactive: [2] 102 % of control | [3] 100 % of control | [4] 89 % of control
